Test results published in patent US20240109918A1, “HETEROCYCLIC COMPOUNDS AND USES THEREOF” (Kumquat Biosciences Inc., priority 2022, published 2024).
pIC50: −log10 of the molar value.

Legend:
KRASG12D = molecular target: T1, KRASG12D (Homo sapiens, UniProt P01116, G12D); test: Bio-Biochem-PPI-HTRF Ras-SOS1 interaction assay (KRAS G12D); type: biochemical; conditions: 5 nM
T1 construct: made in house; host or cells: E. coli BL21 (DE3)
Method in brief: (§1)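 Compounds tested in duplicate (10 μM to 0.01 μM) for disruption of His-hSOS1 binding to GST-tagged wild-type or G12D K-Ras in HEPES pH 7.4 buffer. TR-FRET read (Eu donor, XL665 acceptor) after about 10 min or longer; IC50 derived from the 665/620 nm emission ratio.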

KRASwt = molecular target: T2, KRASwt (Homo sapiens, UniProt P01116); test: Bio-Biochem-PPI-HTRF Ras-SOS1 interaction assay (KRAS wt); type: biochemical; conditions: 5 nM
T2 construct: made in house; host or cells: E. coli BL21 (DE3)
Method in brief: as §1

T1 sequence (P01116 1-188 isoform P01116-2 G12D): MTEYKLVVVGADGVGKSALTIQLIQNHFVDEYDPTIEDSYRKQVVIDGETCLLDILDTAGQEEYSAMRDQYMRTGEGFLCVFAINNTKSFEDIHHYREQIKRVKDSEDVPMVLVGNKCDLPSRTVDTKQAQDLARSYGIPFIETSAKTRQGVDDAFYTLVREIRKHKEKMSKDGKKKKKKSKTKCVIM
T2 sequence (P01116 1-188 isoform P01116-2): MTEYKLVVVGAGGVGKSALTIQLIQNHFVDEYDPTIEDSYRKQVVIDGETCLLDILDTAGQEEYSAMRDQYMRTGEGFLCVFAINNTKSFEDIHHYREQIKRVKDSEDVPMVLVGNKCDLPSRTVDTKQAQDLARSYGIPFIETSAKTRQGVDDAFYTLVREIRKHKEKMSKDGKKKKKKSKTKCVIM

Row | pIC50 (KRASG12D) | pIC50 (KRASwt) | SMILES
1 | > 5.30 | > 5.30 | CC(C)(O)C(F)(F)C(=O)N1CC2(CCCCN(c3nc(OC[C@@]45CCCN4C[C@H](F)C5)nc4c(F)c(-c5ccc(F)c6sc(N)c(C#N)c56)c(Cl)cc34)C2)C1 [compound 339, 2-amino-4-(6-chloro-4-(2-(2,2-difluoro-3-hydroxy-3-methylbutanoyl)-2,6-diazaspiro[3.6]decan-6-yl)-8-fluoro-2-(((2R,7aS)-2-fluorotetrahydro-1H-pyrrolizin-7a(5H)-yl)methoxy)quinazolin-7-yl)-7-fluorobenzo[b]thiophene-3-carbonitrile]
2 | > 5.30 | > 5.30 | C[C@@H]1CN(C(=O)N2CC3(CCCCN(c4nc(OC[C@@]56CCCN5C[C@H](F)C6)nc5c(F)c(-c6ccc(F)c7sc(N)c(C#N)c67)c(Cl)cc45)C3)C2)CCO1 [compound 322, 2-amino-4-(6-chloro-8-fluoro-2-(((2R,7aS)-2-fluorotetrahydro-1H-pyrrolizin-7a(5H)-yl)methoxy)-4-(2-((R)-2-methylmorpholine-4-carbonyl)-2,6-diazaspiro[3.6]decan-6-yl)quinazolin-7-yl)-7-fluorobenzo[b]thiophene-3-carbonitrile]
3 | > 5.30 | > 5.30 | N#Cc1c(N)sc2c(F)ccc(-c3c(Cl)cc4c(N5CCCCC6(CN(C(=O)C7CC7C(F)F)C6)C5)nc(OC[C@@]56CCCN5C[C@H](F)C6)nc4c3F)c12 (stereo partly drawn) [compound 287, 2-amino-4-(6-chloro-4-(2-(2-(difluoromethyl)cyclopropane-1-carbonyl)-2,6-diazaspiro[3.6]decan-6-yl)-8-fluoro-2-(((2R,7aS)-2-fluorotetrahydro-1H-pyrrolizin-7a(5H)-yl)methoxy)quinazolin-7-yl)-7-fluorobenzo[b]thiophene-3-carbonitrile]
4 | > 5.30 | > 5.30 | N#Cc1c(N)sc2c(F)ccc(-c3c(Cl)cc4c(N5CCCCC6(CN(C(=O)C7CC7C(F)(F)F)C6)C5)nc(OC[C@@]56CCCN5C[C@H](F)C6)nc4c3F)c12 (stereo partly drawn) [compound 311, 2-amino-4-(6-chloro-8-fluoro-2-(((2R,7aS)-2-fluorotetrahydro-1H-pyrrolizin-7a(5H)-yl)methoxy)-4-(2-(2-(trifluoromethyl)cyclopropane-1-carbonyl)-2,6-diazaspiro[3.6]decan-6-yl)quinazolin-7-yl)-7-fluorobenzo[b]thiophene-3-carbonitrile]
5 | > 5.30 | > 5.30 | N#Cc1c(N)sc2c(F)ccc(-c3c(Cl)cc4c(N5CC(F)(F)C6(CN(C(=O)C(F)F)C6)C5)nc(OC[C@@]56CCCN5C[C@H](F)C6)nc4c3F)c12 [compound 330, 2-amino-4-(6-chloro-4-(2-(2,2-difluoroacetyl)-8,8-difluoro-2,6-diazaspiro [3.4]octan-6-yl)-8-fluoro-2-(((2R,7aS)-2-fluorotetrahydro-1H-pyrrolizin-7a(5H)-yl)methoxy)quinazolin-7-yl)-7-fluorobenzo[b]thiophene-3-carbonitrile]
6 | > 5.30 | > 5.30 | N#Cc1c(N)sc2c(F)ccc(-c3c(Cl)cc4c(N5CCCCC6(CN(C(=O)C7CCOCC7)C6)C5)nc(OC[C@@]56CCCN5C[C@H](F)C6)nc4c3F)c12 [compound 300, 2-amino-4-(6-chloro-8-fluoro-2-(((2R,7aS)-2-fluorotetrahydro-1H-pyrrolizin-7a(5H)-yl)methoxy)-4-(2-(tetrahydro-2H-pyran-4-carbonyl)-2,6-diazaspiro[3.6]decan-6-yl)quinazolin-7-yl)-7-fluorobenzo[b]thiophene-3-carbonitrile]

Further lines, the compound ahead of its results:

Row | SMILES | pIC50 (KRASG12D) | pIC50 (KRASwt)
7 | N#Cc1c(N)sc2c(F)ccc(-c3c(Cl)cc4c(N5CCCCC6(CN(C(=O)C7(C#N)CC7)C6)C5)nc(OC[C@@]56CCCN5C[C@H](F)C6)nc4c3F)c12 [compound 242, 2-amino-4-(6-chloro-4-(2-(1-cyanocyclopropane-1-carbonyl)-2,6-diazaspiro[3.6]decan-6-yl)-8-fluoro-2-(((2R,7aS)-2-fluorotetrahydro-1H-pyrrolizin-7a(5H)-yl)methoxy)quinazolin-7-yl)-7-fluorobenzo[b]thiophene-3-carbonitrile] | > 5.30 | > 5.30
8 | N#Cc1c(N)sc2c(F)ccc(-c3c(Cl)cc4c(N5CCOC6(CN(C(=O)c7ccnn7C(F)(F)F)C6)C5)nc(OC[C@@]56CCCN5C[C@H](F)C6)nc4c3F)c12 [compound 265, 2-amino-4-(6-chloro-8-fluoro-2-(((2R,7aS)-2-fluorotetrahydro-1H-pyrrolizin-7a(5H)-yl)methoxy)-4-(2-(1-(trifluoromethyl)-1H-pyrazole-5-carbonyl)-5-oxa-2,8-diazaspiro[3.5]nonan-8-yl)quinazolin-7-yl)-7-fluorobenzo[b]thiophene-3-carbonitrile] | > 5.30 | > 5.30
9 | C#Cc1c(F)ccc2cc(O)cc(-c3ncc4c(N5CCCC6(CNC6)C5)nc(O[C@@H](C)[C@@H]5CCCN5C)nc4c3F)c12 [compound 152, 5-ethynyl-6-fluoro-4-(8-fluoro-2-((S)-1-((S)-1-methylpyrrolidin-2-yl)ethoxy)-4-(2,6-diazaspiro[3.5]nonan-6-yl)pyrido[4,3-d]pyrimidin-7-yl)naphthalen-2-ol] | ≤ 5.30 | > 5.30
10 | Nc1nc2c(-c3c(Cl)cc4c(N5CCC6(CC5)CN(C(=O)C(F)(F)F)C6)nc(OC[C@@]56CCCN5C[C@H](F)C6)nc4c3F)ccc(F)c2s1 [compound 168, 1-(7-(7-(2-amino-7-fluorobenzo[d]thiazol-4-yl)-6-chloro-8-fluoro-2-(((2R,7aS)-2-fluorotetrahydro-1H-pyrrolizin-7a(5H)-yl)methoxy)quinazolin-4-yl)-2,7-diazaspiro[3.5]nonan-2-yl)-2,2,2-trifluoroethan-1-one] | ≤ 5.30 | > 5.30
11 | N#Cc1c(N)sc2c(F)ccc(-c3c(Cl)cc4c(N5CCCCC6(CN(C(=O)N7CC(F)C7)C6)C5)nc(OC[C@@]56CCCN5C[C@H](F)C6)nc4c3F)c12 [compound 250, 2-amino-4-(6-chloro-8-fluoro-4-(2-(3-fluoroazetidine-1-carbonyl)-2,6-diazaspiro[3.6]decan-6-yl)-2-(((2R,7aS)-2-fluorotetrahydro-1H-pyrrolizin-7a(5H)-yl)methoxy)quinazolin-7-yl)-7-fluorobenzo[b]thiophene-3-carbonitrile] | > 5.30 | > 5.30
12 | N#Cc1c(N)sc2c(F)ccc(-c3c(Cl)cc4c(N5CCCCC6(CN(C(=O)[C@H]7[C@@H]8COC[C@@H]87)C6)C5)nc(OCC56CCCN5C[C@H](F)C6)nc4c3F)c12 (stereo partly drawn) [compound 192, 4-(4-(2-((1R,5S,6r)-3-oxabicyclo[3.1.0]hexane-6-carbonyl)-2,6-diazaspiro[3.6]decan-6-yl)-6-chloro-8-fluoro-2-(((2R,7aS)-2-fluorotetrahydro-1H-pyrrolizin-7a(5H)-yl)methoxy)quinazolin-7-yl)-2-amino-7-fluorobenzo [b]thiophene-3-carbonitrile] | > 5.30 | > 5.30
13 | N#Cc1c(N)sc2c(F)ccc(-c3c(Cl)cc4c(N5CCCCC6(CN(C(=O)C78CC(C#N)(C7)C8)C6)C5)nc(OC[C@@]56CCCN5C[C@H](F)C6)nc4c3F)c12 [compound 279, 2-amino-4-(6-chloro-4-(2-(3-cyanobicyclo[1.1.1]pentane-1-carbonyl)-2,6-diazaspiro[3.6]decan-6-yl)-8-fluoro-2-(((2R,7aS)-2-fluorotetrahydro-1H-pyrrolizin-7a(5H)-yl)methoxy)quinazolin-7-yl)-7-fluorobenzo[b]thiophene-3-carbonitrile] | > 5.30 | > 5.30
14 | N#Cc1c(N)sc2c(F)ccc(-c3c(Cl)cc4c(N5CCCCC6(CN(C(=O)C7CC7)C6)C5)nc(OC[C@@]56CCCN5C[C@H](F)C6)nc4c3F)c12 [compound 201, 2-amino-4-(6-chloro-4-(2-(cyclopropanecarbonyl)-2,6-diazaspiro[3.6]decan-6-yl)-8-fluoro-2-(((2R,7aS)-2-fluorotetrahydro-1H-pyrrolizin-7a(5H)-yl)methoxy)quinazolin-7-yl)-7-fluorobenzo[b]thiophene-3-carbonitrile] | > 5.30 | > 5.30
15 | C[C@H](Oc1nc(N2CCCC3(CN(C(=O)C(F)(F)F)C3)C2)c2cc(Cl)c(-c3ccc(F)c4sc(N)c(C#N)c34)c(F)c2n1)[C@@H]1CCCN1C [compound 123, 2-amino-4-(6-chloro-8-fluoro-2-((S)-1-((S)-1-methylpyrrolidin-2-yl)ethoxy)-4-(2-(2,2,2-trifluoroacetyl)-2,6-diazaspiro[3.5]nonan-6-yl)quinazolin-7-yl)-7-fluorobenzo[b]thiophene-3-carbonitrile] | > 5.30 | > 5.30
16 | CN(C)C/C=C/C(=O)N1CC2(CCCN(c3nc(OC[C@@]45CCCN4C[C@H](F)C5)nc4c(F)c(-c5ccc(F)c6sc(N)c(C#N)c56)c(Cl)cc34)C2)C1 [compound 189, 2-amino-4-(6-chloro-4-(2-((E)-4-(dimethylamino)but-2-enoyl)-2,6-diazaspiro[3.5]nonan-6-yl)-8-fluoro-2-(((2R,7aS)-2-fluorotetrahydro-1H-pyrrolizin-7a(5H)-yl)methoxy)quinazolin-7-yl)-7-fluorobenzo[b]thiophene-3-carbonitrile] | > 5.30 | > 5.30
17 | N#Cc1c(N)sc2c(F)ccc(-c3c(Cl)cc4c(N5CCCCC6(CN(C(=O)CC7CC7(F)F)C6)C5)nc(OC[C@@]56CCCN5C[C@H](F)C6)nc4c3F)c12 (stereo partly drawn) [compound 235, 2-amino-4-(6-chloro-4-(2-(2-(2,2-difluorocyclopropyl)acetyl)-2,6-diazaspiro[3.6]decan-6-yl)-8-fluoro-2-(((2R,7aS)-2-fluorotetrahydro-1H-pyrrolizin-7a(5H)-yl)methoxy)quinazolin-7-yl)-7-fluorobenzo[b]thiophene-3-carbonitrile] | > 5.30 | > 5.30
